# Where a name gives a salt, the structure may show the parent alone.
# Target: T1, PDE4B (human recombinant) (Homo sapiens, UniProt Q07343)
# T1 construct: made in house; host or cells: Saccharomyces cerevisiae strain GL62 (PDE-deficient yeast)
# Experiment: Inhibition of PDE4B activity (FP and/or SPA assay)
# Format: biochemical
# Conditions: generally FP assay; one reading or average of n readings; read-out: PDE4B pIC50 (generally in FP assay) (±about 0.5) (converted)
# From the text: Human recombinant PDE4B, in particular the 2B splice variant thereof (HSPDE4B2B), is disclosed in WO 94/20079 and also M. M. McLaughlin et al., “A low Km, rolipram-sensitive, cAMP-specific phosphodiesterase from human brain: cloning and expression of cDNA, biochemical characterisation of recombinant protein, and tissue distribution of mRNA”, J. Biol. Chem., 1993, 268, 6470-6476. For example, in Example 1 of WO 94/20079, human recombinant PDE4B is described as being expressed in the PDE-deficient yeast Saccharomyces cerevisiae strain GL62, e.g. after induction by addition of 150 uM CuSO4, and 100,000×g supernatant fractions of yeast cell lysates are described for use in the harvesting of PDE4B enzyme.
# The ability of compounds to inhibit catalytic activity at PDE4B or 4D (human recombinant), PDE3 (from bovine aorta), PDE5 (human recombinant) or PDE6 (from bovine retina) can optionally be determined by Scintillation Proximity Assay (SPA) in a 96-well format.
# Test compounds (as a solution in DMSO, suitably about 2 microlitre (ul) volume of DMSO solution) are preincubated at ambient temperature (room temperature, e.g. 19-23° C.) in Wallac Isoplates (code 1450-514) with PDE enzyme in 50 mM Tris-HCl buffer pH 7.5, 8.3 mM MgCl2, 1.7 mM EGTA, 0.05% (w/v) bovine serum albumin for 10-30 minutes (usually 30 minutes). The enzyme concentration is adjusted so that no more than 20% hydrolysis of the substrate defined below occurs in control wells without compound, during the incubation. For the PDE3, PDE4B and PDE4D assays, [5′,8-^3H]Adenosine 3′,5′-cyclic phosphate (Amersham Pharmacia Biotech, code TRK.559; or Amersham Biosciences UK Ltd, Pollards Wood, Chalfont St Giles, Buckinghamshire HP8 4SP, UK) is added to give 0.05uCi per well and about 10 nM final concentration. For the PDE5 and PDE6 assays, [8^−3H]Guanosine 3′,5′-cyclic phosphate (Amersham Pharmacia Biotech, code TRK.392) is added to give 0.05uCi per well and about 36 nM final concentration. Plates containing assay mixture, suitably approx. 100 ul volume of assay mixture, are mixed on an orbital shaker for 5 minutes and incubated at ambient temperature for 1 hour. Phosphodiesterase SPA beads (Amersham Pharmacia Biotech, code RPNQ 0150) are added (about 1 mg per well) to terminate the assay. Plates are sealed and shaken and allowed to stand at ambient temperature for 35 minutes to 1 hour (suitably 35 minutes) to allow the beads to settle. Bound radioactive product is measured using a WALLAC TRILUX 1450 Microbeta scintillation counter. For inhibition curves, 10 concentrations (e.g. 1.5 nM-30 uM) of each compound are assayed. Curves are analysed using ActivityBase and XLfit (ID Business Solutions Limited, 2 Ocean Court, Surrey Research Park, Guildford, Surrey GU2 7QB, United Kingdom) Results are expressed as pIC50 values.
# The ability of compounds to inhibit catalytic activity at PDE4B (human recombinant) or PDE4D (human recombinant) can optionally be determined by IMAP Fluorescence Polarisation (FP) assay (IMAP Explorer kit, available from Molecular Devices Corporation, Sunnydale, Calif., USA; Molecular Devices code: R8062) in 384-well format.
# The IMAP FP assay is able to measure PDE activity in an homogenous, non-radioactive assay format. The FP assay uses the ability of immobilised trivalent metal cations, coated onto nanoparticles (tiny beads), to bind the phosphate group of Fl-AMP that is produced on the hydrolysis of fluorescein-labelled (Fl) cyclic adenosine mono-phosphate (Fl-cAMP) to the non-cyclic Fl-AMP form. […] Binding of Fl-AMP product to the beads (coated with the immobilised trivalent cations) slows the rotation of the bound Fl-AMP and leads to an increase in the fluorescence polarisation ratio of parallel to perpendicular light. Inhibition of the PDE reduces/inhibits this signal increase. […]
# T1 sequence (Q07343 1-564 isoform Q07343-2): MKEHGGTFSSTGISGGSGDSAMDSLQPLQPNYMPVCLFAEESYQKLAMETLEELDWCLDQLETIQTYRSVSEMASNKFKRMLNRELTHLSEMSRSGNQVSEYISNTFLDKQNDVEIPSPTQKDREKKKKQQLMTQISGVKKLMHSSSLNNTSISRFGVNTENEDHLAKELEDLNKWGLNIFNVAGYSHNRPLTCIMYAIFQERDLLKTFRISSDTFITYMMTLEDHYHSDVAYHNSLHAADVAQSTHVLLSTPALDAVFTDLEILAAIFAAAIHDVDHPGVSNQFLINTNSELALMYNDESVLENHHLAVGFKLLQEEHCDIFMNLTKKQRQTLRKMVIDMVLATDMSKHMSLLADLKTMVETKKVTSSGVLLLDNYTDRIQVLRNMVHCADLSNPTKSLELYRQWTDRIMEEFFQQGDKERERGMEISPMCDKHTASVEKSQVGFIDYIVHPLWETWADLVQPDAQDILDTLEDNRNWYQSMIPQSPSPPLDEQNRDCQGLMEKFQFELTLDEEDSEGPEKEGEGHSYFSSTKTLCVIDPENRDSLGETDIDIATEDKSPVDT
row,SMILES,IC50 [nM]
1,"CCc1nc2c(cnn2CC)c(NC2CCOCC2)c1CNC(=O)c1ccc(NC(=O)CCCCCCCN(C)CCO)cc1 [Example 1A1, N-{[1,6-Diethyl-4-(tetrahydro-2H-pyran-4-ylamino)-1H-pyrazolo[3,4-b]pyridin-5-yl]methyl}-4-({8-[(2-hydroxyethyl)(methyl)amino]octanoyl}amino)benzamide dihydrochloride]",~0.0501
2,"CCc1nc2c(cnn2CC)c(NC2CCOCC2)c1CNC(=O)c1ccc(NC(=O)CCCCCCCN(C)CCO)cc1 [Example 1B, N-{[1,6-diethyl-4-(tetrahydro-2H-pyran-4-ylamino)-1H-pyrazolo[3,4-b]pyridin-5-yl]methyl}-4-({8-[(2-hydroxyethyl)(methyl)amino]octanoyl}amino)benzamide]",~0.0631
3,"CCc1nc2c(cnn2CC)c(NC2CCOCC2)c1CNC(=O)c1ccc(CCCCOCCCCN(C)CCO)cc1 [Example 19, formate salt of N-{[1,6-diethyl-4-(tetrahydro-2H-pyran-4-ylamino)-1H-pyrazolo[3,4-b]pyridin-5-yl]methyl}-4-[4-({4-[(2-hydroxyethyl)(methyl)amino]butyl}oxy)butyl]benzamide]",~0.0398
4,"CCc1nc2c(cnn2CC)c(NC2CCN(C(N)=O)CC2)c1CNC(=O)c1ccc(CCCCOCCCCN2CCOCC2)cc1 [Example 23A, 4-({1,6-diethyl-5-[({[4-(4-{[4-(4-morpholinyl)butyl]oxy}butyl)phenyl]carbonyl}amino)methyl]-1H-pyrazolo[3,4-b]pyridin-4-yl}amino)-1-piperidinecarboxamide]",~0.1
5,"CCn1ncc2c(NC3CCOCC3)c(CNC(=O)c3ccc(NC(=O)CCCCCCCN(C)CCO)cc3)cnc21 [Example 26, Formate salt of N-{[1-ethyl-4-(tetrahydro-2H-pyran-4-ylamino)-1H-pyrazolo[3,4-b]pyridin-5-yl]methyl}-4-({8-[(2-hydroxyethyl)(methyl)amino]octanoyl}amino)benzamide]",~0.251

# Same assay, conditions: one reading or average of n readings
row,SMILES,PDE4B pIC50 (generally in FP assay) (±about 0.5)
1,"CCc1nc2c(cnn2CC)c(NC2CCN(C(N)=O)CC2)c1CNC(=O)c1ccc(NC(=O)CCCCCCCN(C)CCO)cc1.O=C(O)C(F)(F)F [Example 9, 4-({1,6-diethyl-5-[({[4-({8-[(2-hydroxyethyl)(methyl)amino]octanoyl}amino)phenyl]carbonyl}amino)methyl]-1H-pyrazolo[3,4-b]pyridin-4-yl}amino)-1-piperidinecarboxamide trifluoroacetate (salt)]",about 10.3 (n = 1)
